Read-outs that look alike come from different tables or passages of the source. *1 amine or outer side, *2 acyl side, *3 side chain or, on linkers, in order; H or OH if unused. Where a SMILES comes first, the peptide text is derived from it. [ ]: non-standard residue; d: D form. The star is where a group is joined. Nle(5,6-dioxo,6-NHMe) = CNC(=O)C(=O)CC[C@H](N)C(=O)O; X4 = O=C(CC[C@H](N[*:1])C(=O)[*:2])C(=O)NC1CC1; Isonicotinoyl(3-COOH) = O=C(O)c1cnccc1C(=O)*; X6 = CCNC(=O)C(=O)CC[C@H](N[*:1])C(=O)[*:2]; X5 = NC(=O)C(=O)CC[C@H](N[*:1])C(=O)[*:2]; d(aIle) = CC[C@H](C)[C@@H](N)C(=O)O; Pro(4-oxo) = O=C1CN[C@H](C(=O)O)C1; Chg = N[C@H](C(=O)O)C1CCCCC1; Tle = CC(C)(C)[C@H](N)C(=O)O; Nle = CCCC[C@H](N)C(=O)O; X3 = Cc1nc(C(=O)*)cs1
Experiments:
TG2 = target: T1, TG2 (Homo sapiens, UniProt P21980); test: FXIII assay format using TG2 instead of FXIII (selectivity of FXIIIa blockers); assay type: biochemical
T1 sequence (P21980 1-687): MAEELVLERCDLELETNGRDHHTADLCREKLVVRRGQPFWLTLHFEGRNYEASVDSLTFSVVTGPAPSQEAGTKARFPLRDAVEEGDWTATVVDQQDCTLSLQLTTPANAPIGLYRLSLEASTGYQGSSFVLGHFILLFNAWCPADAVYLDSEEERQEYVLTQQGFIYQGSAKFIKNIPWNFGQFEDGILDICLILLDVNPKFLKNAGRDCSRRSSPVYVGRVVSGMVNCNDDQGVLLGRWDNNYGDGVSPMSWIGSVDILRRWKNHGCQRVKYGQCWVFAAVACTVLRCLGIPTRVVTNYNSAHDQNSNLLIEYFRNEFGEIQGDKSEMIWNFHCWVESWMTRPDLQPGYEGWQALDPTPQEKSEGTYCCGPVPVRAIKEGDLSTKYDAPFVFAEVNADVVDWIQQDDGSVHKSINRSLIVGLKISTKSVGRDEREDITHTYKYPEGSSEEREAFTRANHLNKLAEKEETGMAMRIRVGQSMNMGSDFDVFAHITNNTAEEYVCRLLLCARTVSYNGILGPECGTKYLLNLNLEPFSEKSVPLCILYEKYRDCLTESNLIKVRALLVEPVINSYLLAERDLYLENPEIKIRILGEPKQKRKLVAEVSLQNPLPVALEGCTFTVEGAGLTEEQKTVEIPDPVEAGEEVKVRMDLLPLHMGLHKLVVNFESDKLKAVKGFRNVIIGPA
Experimental: (§1) 50 μg lyophilized His-tagged recombinant human factor XIII A-subunit (His6-rhFXIII, Zedira product 1027) is reconstituted in H2O (volume depends on original volume before lyophilization) resulting in a buffer containing 20 mM Tris-HCl, 150 mM NaCl, 1 mM EDTA, 1 mM DTT, 189 mg/ml maltodextrin, pH=7.5. The rhFXIII stock solution is diluted in buffer (50 mM Tris-HCl, 7.5 mM CaCl2, 150 mM NaCl, pH=7.4) to give a working solution of 59 U/ml (based on the amine-incorporation activity measured using transglutaminase activity assay #1036 (Zedira GmbH), described below).
(§2) A 10 mM inhibitor stock solution is prepared in DMSO, and from this a serial 1:2-fold dilution series is prepared also in DMSO. Each of the initial dilutions is subsequently diluted 1:50-fold with buffer (50 mM Tris-HCl, 7.5 mM CaCl2, 150 mM NaCl, pH=7.4) to yield the final working dilutions containing 2% (v/v) DMSO.
(§3) 15 μl of inhibitor working dilution are added per well of a 96 well microtiter plate. As control, 15 μl of a 2% (v/v) DMSO solution prepared using the buffer mentioned above are added per well.
(§4) 480 μl of His6-rhFXIII working solution and 120 μl human alpha thrombin (0.5 NIH units/μl) are added to 10.8 ml assay buffer (50 mM Tris-HCl, 7.5 mM CaCl2, 150 mM NaCl, 5 mM DTT, 13.4 mM glycine methylester, 50 μM Abz-NE(CAD-DNP)EQVSPLILLK-OH, (Zedira product A101; patent No.: EP 1781807B1), pH=7.4). From this master-mix solution, 285 μl are added per well containing the inhibitor. Increase in fluorescence is measured using […] and λem=418 nm at 37° C. for 35 min. A slope of the increase in fluorescence between 20 and 30 min is calculated for determination of the IC50 value (inhibitor concentration at which 50% of the initial FXIII activity is blocked).
This assay was also used to determine selectivity of inhibitors preferentially blocking FXIIIa by using TG2 instead of FXIII.
(§5) Analysis of enzymatic activity is performed by calculation of the slope of an increase in fluorescence intensity. IC50 values are calculated by plotting the enzymatic activity (as percentage from control containing 2% DMSO instead of inhibitor) against the inhibitor concentration. IC50 is defined as the inhibitor concentration blocking 50%) of initial enzyme activity.

[1] = target: T2, recombinant human factor XIII A-subunit (rhFXIII-A, plasma transglutaminase) (Homo sapiens, UniProt P00488); test: Inhibition of rec. human coagulation factor XIII (fluorescence, Abz-NE(CAD-DNP)EQVSPLILLK-OH); assay type: biochemical
T2 construct: His6; purchased Zedira 1027 (so in the source); T027)
T2 sequence (P00488 39-732 limits assumed): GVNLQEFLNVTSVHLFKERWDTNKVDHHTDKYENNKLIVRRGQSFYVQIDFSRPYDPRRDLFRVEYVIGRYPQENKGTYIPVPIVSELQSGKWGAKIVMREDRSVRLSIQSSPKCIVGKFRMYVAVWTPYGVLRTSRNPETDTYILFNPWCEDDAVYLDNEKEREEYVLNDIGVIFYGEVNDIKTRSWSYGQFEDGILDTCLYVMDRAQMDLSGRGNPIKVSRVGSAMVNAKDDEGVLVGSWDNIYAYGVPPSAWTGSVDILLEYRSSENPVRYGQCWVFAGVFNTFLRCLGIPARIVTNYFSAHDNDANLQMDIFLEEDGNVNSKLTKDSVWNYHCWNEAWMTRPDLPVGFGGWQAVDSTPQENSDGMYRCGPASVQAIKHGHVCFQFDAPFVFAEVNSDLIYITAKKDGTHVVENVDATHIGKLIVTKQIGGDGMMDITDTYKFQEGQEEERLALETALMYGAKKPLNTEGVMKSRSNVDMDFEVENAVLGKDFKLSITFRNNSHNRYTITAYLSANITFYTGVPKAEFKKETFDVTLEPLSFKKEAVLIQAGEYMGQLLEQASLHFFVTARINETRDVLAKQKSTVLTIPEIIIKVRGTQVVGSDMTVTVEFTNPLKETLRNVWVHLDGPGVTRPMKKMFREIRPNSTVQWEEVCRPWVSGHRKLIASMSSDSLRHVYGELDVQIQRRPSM
Experimental: Method for Inhibition Studies of Rec. Human Coagulation Factor XIII (Plasma Transglutaminase, rhFXIII-A)
as §1, §2, §3, §4, §5

[2] = Table 3, selectivity with respect to TG2, read-out: IC50 TG2
[3] = Table 3, FXIII inhibitors, read-out: IC50 FXIII

Row | SMILES | IC50 (TG2; [2]) [nM] | IC50 [1, 3] [nM] | IC50 (TG2) [nM] | IC50 [1] [nM]
1 | CCNC(=O)C(=O)CC[C@H](NC(=O)c1ccncc1C(=O)O)C(=O)N[C@H](C(=O)N1CC(=O)C[C@H]1C(=O)N[C@H](C(=O)N[C@H](C(N)=O)C1CCCCC1)C1CCCCC1)C(C)(C)C [Compound E26, 4-((S)-1-((S)-1-((S)-2-((S)-2-((S)-2-amino-1-cyclohexyl-2-oxoethylamino)-1-cyclohexyl-2-oxoethylcarbamoyl)-4-oxopyrrolidin-1-yl)-3,3-dimethyl-1-oxobutan-2-ylamino)-6-(ethylamino)-1,5,6-trioxohexan-2-ylcarbamoyl)nicotinic acid] ({Isonicotinoyl(3-COOH)}-[X6][Tle][Pro(4-oxo)][Chg][Chg]-NH2) | 10800 | 320 | – | –
2 | CC[C@H](C)[C@@H](NC(=O)[C@H](CC(C)C)NC(=O)[C@H](CCC(=O)C(=O)NC1CC1)NC(=O)c1csc(C)n1)C(=O)N[C@@H](CC(C)C)C(=O)N1CCC[C@H]1C(=O)N[C@@H](Cc1c[nH]c2ccccc12)C(=O)N1CCC[C@H]1C(N)=O [Compound E33, (S)—N1-((S)-1-((2R,3S)-1-((S)-1-((S)-2-((S)-1-((S)-2-carbamoylpyrrolidin-1-yl)-3-(1H-indol-3-yl)-1-oxopropan-2-ylcarbamoyl)pyrrolidin-1-yl)-4-methyl-1-oxopentan-2-ylamino)-3-methyl-1-oxopentan-2-ylamino)-4-methyl-1-oxopentan-2-yl)-N6-cyclopropyl-2-(2-methylthiazole-4-carboxamido)-5-oxohexanediamide] (X3-[X4]L[d(aIle)]LPWP-NH2) | 11500 | 16000 | – | –
3 | CCCC(NC(=O)C1C2C(CN1C(=O)C(CC1CC1)NC(=O)C(CCC(=O)C(N)=O)NC(=O)c1cc(C(=O)O)cc([N+](=O)[O-])c1)C2(C)C)C(=O)N1CCCC1(C)C(=O)NC(C)COc1c(C)cccc1C [Compound E10, 3-((2S)-6-amino-1-((2S)-3-cyclopropyl-1-((1R,2S)-2-((2S)-1-((2S)-2-(1-(2,6-dimethylphenoxy)propan-2-ylcarbamoyl)-2-methylpyrrolidin-1-yl)-1-oxopentan-2-ylcarbamoyl)-6,6-dimethyl-3-azabicyclo[3.1.0]hexan-3-yl)-1-oxopropan-2-ylamino)-1,5,6-trioxonexan-2-ylcarbamoyl)-5-nitrobenzoic acid] | – | – | 100 | 150
4 | CCCC[C@H](NC(=O)[C@H](CCC(=O)C(N)=O)NC(=O)[C@H](CC(=O)O)NC(C)=O)C(=O)N[C@@H](CCCC)C(=O)N[C@@H](CC(C)C)C(=O)N1CCC[C@H]1C(=O)N[C@@H](Cc1c[nH]c2ccccc12)C(=O)N1CCC[C@H]1C(=O)O [Compound E08, (S)-1-((S)-2-((S)-1-((4R,7S,10S,13S,16S)-7-(4-amino-3,4-dioxobutyl)-10, -dibutyl-4-(carboxymethyl)-18-methyl-2,5,8,11,14-pentaoxo-3,6,9,12,15-pentaazanonadecanecarbonyl)pyrrolidine-2-carboxamido)-3-(1H-indol-3-yl)propanoyl)pyrrolidine-2-carboxylic acid] (Ac-D[X5][Nle][Nle]LPWP-OH) | 100 | 150 | – | –
5 | CC(C)(C)[C@H](NC(=O)[C@H](CCC(=O)C(N)=O)NC(=O)c1ccncc1C(=O)O)C(=O)N1CC(=O)C[C@H]1C(=O)N[C@H](C(=O)N[C@H](C(N)=O)C1CCCCC1)C1CCCCC1 [Compound E31, 4-((S)-6-amino-1-((S)-1-((S)-2-((S)-2-((S)-2-amino-1-cyclohexyl-2-oxoethylamino)-1-cyclohexyl-2-oxoethylcarbamoyl)-4-oxopyrrolidin-1-yl)-3,3-dimethyl-1-oxobutan-2-ylamino)-1,5,6-trioxohexan-2-ylcarbamoyl)nicotinic acid] ({Isonicotinoyl(3-COOH)}-[X5][Tle][Pro(4-oxo)][Chg][Chg]-NH2) | > 20000 | 5000 | – | –
6 | CC(C)(C)[C@H](NC(=O)[C@H](CCC(=O)C(N)=O)NC(=O)c1cnc(O)c([N+](=O)[O-])c1)C(=O)N1CCCCC1C(=O)N[C@H](C(=O)N[C@H](C(N)=O)C1CCCCC1)C1CCCCC1 (stereo in doubt) [Compound E09, (S)—N1-((S)-1-((R)-2-((S)-2-((S)-2-amino-1-cyclohexyl-2-oxoethylamino)-1-cyclohexyl-2-oxoethylcarbamoyl)piperidin-1-yl)-3,3-dimethyl-1-oxobutan-2-yl)-2-(6-hydroxy-5-nitronicotinamido)-5-oxohexanediamide] | – | – | 100 | 150
7 | CCCC[C@H](NC(=O)[C@H](CCC(=O)C(=O)NC)NC(=O)CNC(=O)[C@@H]1CCCN1C(=O)CNC(C)=O)C(=O)N[C@H](C(=O)N[C@@H](CC(C)C)C(=O)N1CCC[C@H]1C(=O)N[C@@H](Cc1c[nH]c2ccccc12)C(N)=O)[C@@H](C)CC [Compound E36, (S)-2-(2-((S)-1-(2-acetamidoacetyl)pyrrolidine-2-carboxamido)acetamido)-N1-((S)-1-((2S,3S)-1-((S)-1-((S)-2-((S)-1-amino-3-(1H-indol-3-yl)-1-oxopropan-2-ylcarbamoyl)pyrrolidin-1-yl)-4-methyl-1-oxopentan-2-ylamino)-3-methyl-1-oxopentan-2-ylamino)-1-oxohexan-2-yl)-N6-methyl-5-oxohexanediamide] (Ac-GPG[Nle(5,6-dioxo,6-NHMe)][Nle]ILPW-NH2) | 800 | 3100 | – | –
8 | Cc1nc(C(=O)N[C@@H](CCC(=O)C(=O)NC2CC2)C(=O)N[C@H](C(=O)N2CC(=O)C[C@H]2C(=O)N[C@H](C(=O)N[C@H](C(N)=O)C2CCCCC2)C2CCCCC2)C(C)(C)C)cs1 [Compound E32, (S)—N1-((S)-1-((S)-2-((S)-2-((S)-2-amino-1-cyclohexyl-2-oxoethylamino)-1-cyclohexyl-2-oxoethylcarbamoyl)-4-oxopyrrolidin-1-yl)-3,3-dimethyl-1-oxobutan-2-yl)-N6-cyclopropyl-2-(2-methylthiazole-4-carboxamido)-5-oxohexanediamide] (X3-[X4][Tle][Pro(4-oxo)][Chg][Chg]-NH2) | 1000 | 2650 | – | –

Source: patent publication US11072634B2, “Inhibitors of transglutaminases” (Zedira GmbH, priority 2016, dated 2021)
